From US20210045385A1, “PYRIDAZINONE-SUBSTITUTED KETOXIMES AS HERBICIDES” (FMC Corporation, priority 2018, published 2021)

Tests used:
Type in all cases: in vivo
[1] = system: Italian ryegrass (Lolium mutiflorum); assay: Test C preemergence, visual plant response rating
Procedure, shortened: (§1)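 Visual injury on a 0 (no effect) to 100 (complete control) scale versus untreated controls, scored approximately 10 d after treatment under greenhouse conditions. Treatments used surfactant-containing non-phytotoxic solvent formulations, sprayed onto loam–sand soil preemergence or onto one- to two-leaf plants 2–10 cm tall postemergence.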

[2] = system: barnyardgrass (Echinochloa crus-galli); assay: Test C preemergence, visual plant response rating
Procedure, shortened: as §1

[3] = system: foxtail, giant (giant foxtail, Setaria faberi); assay: Test C preemergence, visual plant response rating
Procedure, shortened: as §1

kochia (Bassia scoparia) [4] = assay: Test C preemergence, visual plant response rating
Procedure, shortened: as §1

[5] = system: pigweed (Amaranthus retroflexus); assay: Test C preemergence, visual plant response rating
Procedure, shortened: as §1

[6] = system: ragweed (common ragweed, Ambrosia artemisiifolia); assay: Test C preemergence, visual plant response rating
Procedure, shortened: as §1

[7] = system: Italian ryegrass (Lolium mutiflorum); assay: Test C postemergence, visual plant response rating
Procedure, shortened: as §1

[8] = system: barnyardgrass (Echinochloa crus-galli); assay: Test C postemergence, visual plant response rating
Procedure, shortened: as §1

[9] = system: blackgrass (Alopecurus myosuroides); assay: Test C postemergence, visual plant response rating
Procedure, shortened: as §1

corn (Zea mays) = assay: Test C postemergence, visual plant response rating
Procedure, shortened: as §1

[10] = system: foxtail, giant (giant foxtail, Setaria faberi); assay: Test C postemergence, visual plant response rating
Procedure, shortened: as §1

[11] = system: galium (catchweed bedstraw, Galium aparine); assay: Test C postemergence, visual plant response rating
Procedure, shortened: as §1

kochia (Bassia scoparia) [12] = assay: Test C postemergence, visual plant response rating
Procedure, shortened: as §1

[13] = system: pigweed (Amaranthus retroflexus); assay: Test C postemergence, visual plant response rating
Procedure, shortened: as §1

[14] = system: ragweed (common ragweed, Ambrosia artemisiifolia); assay: Test C postemergence, visual plant response rating
Procedure, shortened: as §1

[15] = system: wheat (Triticum aestivum); assay: Test C postemergence, visual plant response rating
Procedure, shortened: as §1

[16] = system: barnyardgrass (Echinochloa crus-galli); assay: Test D flooded paddy test, visual plant response rating; settings: 250 g ai/ha, scale 0 to 100 (0 no effect, 100 complete control), 13 to 15 d
Procedure, shortened: (§2)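 Visual injury scores, 0 (no effect) to 100 (complete control), were assigned after 13 to 15 d in the greenhouse by comparison with controls. Test compounds had been added to paddy water covering soil by 3 cm at the 2-leaf stage.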

[17] = system: duck salad (Heteranthera limosa); assay: as above; settings: 250 g ai/ha, scale 0 to 100 (0 no effect, 100 complete control), 13 to 15 d
Procedure, shortened: as §2

rice (Oryza sativa) = assay: as above; settings: 250 g ai/ha, scale 0 to 100 (0 no effect, 100 complete control), 13 to 15 d
Procedure, shortened: as §2

[18] = system: sedge umbrella (small-flower umbrella sedge, Cyperus difformis); assay: as above; settings: 250 g ai/ha, scale 0 to 100 (0 no effect, 100 complete control), 13 to 15 d
Procedure, shortened: as §2

[19] = Test C, 31 g ai/ha, 0 is no effect, 100 is complete control
[20] = Test C, postemergence, 125 g ai/ha

C#CCO/N=C(\c1ccc(Cl)c(Cl)c1)c1c(O)c(C)nn(C)c1=O [Compound 166]
Ryegrass, Italian plant response rating (0 to 100 scale) ([1]; 125 g ai/ha): 60 | Ryegrass, Italian plant response rating (0 to 100 scale) [1, 19]: 10 | Barnyardgrass plant response rating (0 to 100 scale) ([2]; 125 g ai/ha): 50 | Barnyardgrass plant response rating (0 to 100 scale) [2, 19]: 0 | Foxtail, Giant plant response rating (0 to 100 scale) ([3]; 125 g ai/ha): 60 | Foxtail, Giant plant response rating (0 to 100 scale) [3, 19]: 0 | Kochia plant response rating (0 to 100 scale) (kochia (Bassia scoparia) [4]; 125 g ai/ha): 80 | Kochia plant response rating (0 to 100 scale) (kochia (Bassia scoparia) [4]; [19]): 0 | Pigweed plant response rating (0 to 100 scale) ([5]; 125 g ai/ha): 50 | Pigweed plant response rating (0 to 100 scale) [5, 19]: 0 | Ragweed plant response rating (0 to 100 scale) ([6]; 125 g ai/ha): 10 | Ragweed plant response rating (0 to 100 scale) [6, 19]: 0 | Ryegrass, Italian plant response rating (0 to 100 scale) ([7]; Postemergence, 31 g ai/ha): 0 | Ryegrass, Italian plant response rating (0 to 100 scale) [7, 20]: 80 | Barnyardgrass plant response rating (0 to 100 scale) ([8]; Postemergence, 31 g ai/ha): 20 | Barnyardgrass plant response rating (0 to 100 scale) [8, 20]: 30 | Blackgrass plant response rating (0 to 100 scale) ([9]; Postemergence, 31 g ai/ha): 0 | Blackgrass plant response rating (0 to 100 scale) [9, 20]: 20 | Corn plant response rating (0 to 100 scale) (corn (Zea mays); Postemergence, 31 g ai/ha): 0 | Corn plant response rating (0 to 100 scale) (corn (Zea mays); [20]): 20 | Foxtail, Giant plant response rating (0 to 100 scale) ([10]; Postemergence, 31 g ai/ha): 10 | Foxtail, Giant plant response rating (0 to 100 scale) [10, 20]: 30 | Galium plant response rating (0 to 100 scale) ([11]; Postemergence, 31 g ai/ha): 50 | Galium plant response rating (0 to 100 scale) [11, 20]: 80 | Kochia plant response rating (0 to 100 scale) (kochia (Bassia scoparia) [12]; Postemergence, 31 g ai/ha): 30 | Kochia plant response rating (0 to 100 scale) (kochia (Bassia scoparia) [12]; [20]): 40 | Pigweed plant response rating (0 to 100 scale) ([13]; Postemergence, 31 g ai/ha): 30 | Pigweed plant response rating (0 to 100 scale) [13, 20]: 50 | Ragweed plant response rating (0 to 100 scale) ([14]; Postemergence, 31 g ai/ha): 20 | Ragweed plant response rating (0 to 100 scale) [14, 20]: 30 | Wheat plant response rating (0 to 100 scale) ([15]; Postemergence, 31 g ai/ha): 0 | Wheat plant response rating (0 to 100 scale) [15, 20]: 60 | Plant response rating, Barnyardgrass (Flood) [16]: 0 | Plant response rating, Ducksalad (Flood) [17]: 0 | Plant response rating, Rice (Flood) (rice (Oryza sativa)): 0 | Plant response rating, Sedge, Umbrella (Flood) [18]: 0

Cc1nn(C)c(=O)c(C(=NOC(C)C)c2cc(Cl)cc(Cl)c2F)c1O [Compound 167]
Ryegrass, Italian plant response rating (0 to 100 scale) ([1]; 125 g ai/ha): 100 | Ryegrass, Italian plant response rating (0 to 100 scale) [1, 19]: 100 | Barnyardgrass plant response rating (0 to 100 scale) ([2]; 125 g ai/ha): 100 | Barnyardgrass plant response rating (0 to 100 scale) [2, 19]: 100 | Foxtail, Giant plant response rating (0 to 100 scale) ([3]; 125 g ai/ha): 100 | Foxtail, Giant plant response rating (0 to 100 scale) [3, 19]: 100 | Kochia plant response rating (0 to 100 scale) (kochia (Bassia scoparia) [4]; 125 g ai/ha): 100 | Kochia plant response rating (0 to 100 scale) (kochia (Bassia scoparia) [4]; [19]): 70 | Pigweed plant response rating (0 to 100 scale) ([5]; 125 g ai/ha): 100 | Pigweed plant response rating (0 to 100 scale) [5, 19]: 100 | Ragweed plant response rating (0 to 100 scale) ([6]; 125 g ai/ha): 100 | Ragweed plant response rating (0 to 100 scale) [6, 19]: 80 | Ryegrass, Italian plant response rating (0 to 100 scale) ([7]; Postemergence, 31 g ai/ha): 100 | Ryegrass, Italian plant response rating (0 to 100 scale) [7, 20]: 100 | Barnyardgrass plant response rating (0 to 100 scale) ([8]; Postemergence, 31 g ai/ha): 80 | Barnyardgrass plant response rating (0 to 100 scale) [8, 20]: 90 | Blackgrass plant response rating (0 to 100 scale) ([9]; Postemergence, 31 g ai/ha): 80 | Blackgrass plant response rating (0 to 100 scale) [9, 20]: 90 | Corn plant response rating (0 to 100 scale) (corn (Zea mays); Postemergence, 31 g ai/ha): 30 | Corn plant response rating (0 to 100 scale) (corn (Zea mays); [20]): 70 | Foxtail, Giant plant response rating (0 to 100 scale) ([10]; Postemergence, 31 g ai/ha): 90 | Foxtail, Giant plant response rating (0 to 100 scale) [10, 20]: 90 | Galium plant response rating (0 to 100 scale) ([11]; Postemergence, 31 g ai/ha): 80 | Galium plant response rating (0 to 100 scale) [11, 20]: 100 | Kochia plant response rating (0 to 100 scale) (kochia (Bassia scoparia) [12]; Postemergence, 31 g ai/ha): 80 | Kochia plant response rating (0 to 100 scale) (kochia (Bassia scoparia) [12]; [20]): 100 | Pigweed plant response rating (0 to 100 scale) ([13]; Postemergence, 31 g ai/ha): 100 | Pigweed plant response rating (0 to 100 scale) [13, 20]: 100 | Ragweed plant response rating (0 to 100 scale) ([14]; Postemergence, 31 g ai/ha): 100 | Ragweed plant response rating (0 to 100 scale) [14, 20]: 100 | Wheat plant response rating (0 to 100 scale) ([15]; Postemergence, 31 g ai/ha): 70 | Wheat plant response rating (0 to 100 scale) [15, 20]: 100 | Plant response rating, Barnyardgrass (Flood) [16]: 95 | Plant response rating, Ducksalad (Flood) [17]: 70 | Plant response rating, Rice (Flood) (rice (Oryza sativa)): 65 | Plant response rating, Sedge, Umbrella (Flood) [18]: 95
